Source: US20080171779A1, “USE OF 5-HT6 ANTAGONISTS TO PREVENT RELAPSE INTO ADDICTION” (Solvay Pharmaceuticals B.V., priority 2007, published 2008)

What was measured:
[1] = system: cue-induced relapse of alcohol seeking in the rat; test: Stimulus (cue) induced reinstatement of extinguished self-administration of alcohol; format: in vivo; settings: for Nose-pokes after an alcohol induced cue, former alcoholics / Nose-pokes after an alcohol induced cue, total abstainers: 45 min test, mean ± spread; for amount of active nose-pokes versus placebo, cue induced alcohol seeking: one-way ANOVA, Fisher's LSD; for inactive nose-pokes versus placebo, cue induced alcohol seeking: all tested dosages
Description: After learning to consume alcohol 12% (v/v) in a two-bottle paradigm, rats were trained to self-administer alcohol in the operant cage. When response-rates were stable, animals were withdrawn from alcohol for three weeks. Subsequently, the effect of 5-HT6 antagonists on relapse was tested by re-exposing the animals to alcohol-related stimuli.
(§1) Animals: 64 male Wistar rats, weighing 280-300 g at arrival (Harlan, the Netherlands) were used for testing compound 33. The animals were housed individually in a temperature—(T=22±2° C.) and humidity (rel %=60±5%) controlled room on a reversed 12 h light-dark cycle (lights off at 7:00 AM) with water available ad libitum. The animals were on a diet of 18 gr chow per animal per day. The experiment started after one week of acclimatization and lasted 12-14 weeks.
Drug Self-administration: All training and testing was conducted in 16 operant chambers (30.5×24.1×29.2 cm) surrounded by sound attenuating ventilated cubicles (Med Associates, Georgia, Vt.). The chambers were fitted with a grid floor, a red dim house light and opposite the house light an intelligence panel. In the intelligence panel there were two nose-poke holes (Ø2.5 cm) located 5.5 cm above the grid floor and 16 cm separated from each other. A red dim stimulus light was located 12 cm above both nose-poke holes. Between the two nose-poke holes, a receptacle was located, in which the alcohol was delivered. High above the receptacle was a sonalert tone module. […] The alcohol drop was delivered by an infusion pump (PHM-100, MedAssociates, Georgia, Vt.) in 4.2 seconds During alcohol delivery, the active nose-poke hole was illuminated and a tone (±65 dB) was presented by the sonalert tone module for 2 seconds. The receptacle was illuminated for 5 seconds (discrete cues). The stimulus light switched off for 15 seconds (discriminative cue). In this 15 second time-out period, nose-poking was without consequences.
Animals were selected for further testing if they consumed alcohol doses (in the FR4-schedule) above the literature described pharmacological effective dose of 0.3 g/kg/hr (Linseman, 1987). Subsequently, when response behavior on the FR4-schedule was stable, there was a 3 week period of withdrawal in the homecage.
Test for reinstatement: After the withdrawal period, each animal was tested twice for cue induced reinstatement with a week of further extinction training and wash-out in between. Animals were randomly distributed over the different experimental groups and never received the same treatment twice. On test days, the animals were placed in the operant cage for three or four hours (test day 1: 4 hr; test day 2: 3 hr) in absence of alcohol and alcohol related stimuli (discrete and discriminative cues) to extinguish response behavior. One hour before the end of this extinction session, the animal was removed from the operant cage and treated with a 5-HT6 antagonist. After drug administration the animals was placed back into the operant chamber, where the session continued. When the last hour had passed, the cue-induced relapse test session started (duration: 45 min). During this test, the experimental conditions were similar to the conditions during training on an FR4-schedule, with the exceptions that 1) at the beginning of the session, a 12% alcohol drop of 0.20 ml was available (delivered in the receptacle by the experimenter at the begin of the test session) and 2) after every 4th response, only cues were presented (no alcohol was delivered). Tests were operated and raw data was saved by the MED-PC IV program (Tatham, 1989).
Drugs: Alcohol 12% (v/v) was made from alcohol 96% and diluted with tap water. Compound 33 was suspended in 5% Tween 80, 0.25% methylcellulose, 5% PEG 400 and H2O HPLC (65% of end volume). Ethanol was added and evaporated under N2-gas. The pH was adjusted to 5.8. In the range: 0, 3,10, and 30 mg/kg, compound 33 was administered intraperitoneally, 15 minutes before testing. The injection volume was 2 ml/kg. […]

[2] = system: cue-induced relapse of alcohol seeking in the rat; test: as above; format: in vivo; settings: 20 mg/kg
[3] = system: relapse behavior induced by conditioned drug cues (cocaine, heroin, nicotine, alcohol); settings: cues previously associated with cocaine, nicotine and alcohol delivery; cited from earlier work
[4] = system: cue-induced relapse of nicotine seeking in the rat; test: Stimulus (cue) induced reinstatement of extinguished self-administration of nicotine; format: in vivo; settings: for Nose-pokes after a nicotine induced cue, total abstainers / Nose-pokes after a nicotine induced cue, former nicotine addicts: 30 min test, mean ± spread; for Nose-pokes after a nicotine induced cue, former nicotine addicts: column 'former nicotine addicts'
Text: Using a very similar test protocol, 5-HT6 antagonists were also found to suppress cue-induced nicotine-seeking behavior. Thus 5-HT6 antagonists are believed useful for the preparation of medicaments for preventing relapse into addiction, in particular relapse into addiction to substances of abuse, including opiates, hallucinogens, inhalants, phencyclidine, amphetamines, cocaine, cannabis, nicotine, and alcohol, medicaments for preventing relapse to addiction to certain medicines, including sedatives, hypnotics and anxiolytics, and medicaments for preventing relapse to certain addictive behaviors, including gambling.
as §1, with “32” for “64”, “water and food” for “water”, “libitum.” for “libitum. The animals were on a diet of 18 gr chow per animal per day.”
Surgery: after a week of acclimatization, intravenous silicon catheters are implanted in the right jugular vein under isoflurane anesthesia as described previously in De Vries, 1999.
Drug Self-administration: All training and testing was conducted in 16 operant chambers (30.5×24.1×29.2 cm) surrounded by sound attenuating ventilated cubicles (Med Associates, Georgia, Vt.). The chambers were fitted with a grid floor, a red dim house light and opposite the house light an intelligence panel. In the intelligence panel there were two nose-poke holes (Ø2.5 cm) located 5.5 cm above the grid floor and 16 cm separated from each other. A red dim stimulus light was located 12 cm above both nose-poke holes. A tone module was located at the top of the center of the intelligence panel. During self-administration, animals were connected to an infusion pump (PHM-100, Med Associates, Georgia, V.T.) by a swivel to receive intravenous infusions of nicotine (40 μg/kg/inf). […] During this infusion, the active nose poke hole was illuminated (yellow light) and an audio stimulus was presented (tone of 2900 Hz and 65 dB for 2 seconds) (discrete cues). From the moment of nicotine delivery, the stimulus light switched off for 15 seconds (discriminative cue). In this time-out period, nose poking was without consequences.
Acquisition, withdrawal and reinstatement: Behavioral training started 5-7 days after surgery. […] When response behavior was stable, animals were selected for further testing if they earned at least 5 rewards during the last three sessions of the FR3 schedule and the reward delivery was equal distributed over the session. Subsequently, responding for nicotine was extinguished. In this extinction phase (11 daily sessions of 60 min), the animals were placed in the operant chambers, but the nicotine and nicotine related stimuli (discrete and discriminative cues) were not available. Finally, the animals were tested for cue-induced reinstatement. During this test (duration of 30 minutes), the experimental conditions were similar to the conditions during training on an FR3-schedule, with the exception that no nicotine was available and the animals were not connected to the swivel.
Tests for cue-induced reinstatement were conducted twice; between these two test days, there was a week of further extinction training (wash-out period). During cue-induced reinstatement, effects of 5-HT6 antagonists were studied on output measurements.
Drugs: Nicotine for self-administration: (−) nicotine hydrogen tartrate salt (Sigma, St Louis, Mo.) was dissolved in sterile saline. The pH of the solution was adjusted to +/−7.4 with diluted NaOH. Nicotine dose was expressed as free base weight. Compound 33 was suspended in 5% of end volume Tween 80. Ethanol was added and evaporated under N2-gas for 30 minutes. […] After the pH was adjusted to 5.5, 10% of end volume H2O HPLC was added. […]

With `COc1ccc(NS(=O)(=O)c2sc3ccc(Cl)cc3c2C)cc1N1CCNCC1.Cl` [SB-271046, reference compound] the “Nose-pokes after an alcohol induced cue, former alcoholics” value (“Nose-pokes … former alcoholics” below) ([1]; 3 mg/kg) was 11.9 ± 5.4, the “Nose-pokes after an alcohol induced cue, total abstainers” value ([1]; 3 mg/kg) was 1.1 ± 0.5 and the “Nose-pokes after an alcohol induced cue, total abstainers” value ([1]; 10 mg/kg) was 0.9 ± 0.5. For the same molecule, the “amount of active nose-pokes versus placebo, cue induced alcohol seeking” value ([1]; 10 mg/kg, p<0.05) was “significantly lower”, the “inactive nose-pokes versus placebo, cue induced alcohol seeking” value [1] was “no significant difference” and the “relapse into addiction (alcohol)” value [2] was “prevented from relapse into addiction”. For the same molecule, the “Nose-pokes after an alcohol induced cue, total abstainers” value ([2]; 'total abstainers', 45 min test, mean ± spread) was 2.7 ± 1.9 and the “amount of active nose-pokes versus placebo, cue induced alcohol seeking” value ([2]; one-way ANOVA, Fisher's LSD, p<0.005) was “significantly lower”.

In the case of `Cc1c(C(=O)NN2CCCCC2)nn(-c2ccc(Cl)cc2Cl)c1-c1ccc(Cl)cc1` [SR141716A], the “relapse behavior induced by conditioned drug cues” value [3] is given as “able to selectively reduce relapse behavior”.

For `CCN/C(=N\S(=O)(=O)c1cccc(Cl)c1)N1CC(C)(C)C=N1` [compound 33], the “Nose-pokes … former alcoholics” value ([1]; 3 mg/kg) was 27.0 ± 6.1, the “Nose-pokes after an alcohol induced cue, total abstainers” value ([1]; 3 mg/kg) was 1.1 ± 0.2 and the “Nose-pokes … former alcoholics” value ([1]; 10 mg/kg) was 23.5 ± 4.2. For the same molecule, the “Nose-pokes after an alcohol induced cue, total abstainers” value ([1]; 10 mg/kg) was 2.2 ± 1.5, the “relapse into addiction (alcohol)” value ([1]; 30 mg/kg) was “prevented from relapse into addiction” and the “Nose-pokes after an alcohol induced cue, total abstainers” value ([1]; 30 mg/kg) was 0.8 ± 0.1. For the same molecule, the “amount of active nose-pokes versus placebo, cue induced alcohol seeking” value ([1]; 30 mg/kg, p<0.005) was “significantly lower”, the “inactive nose-pokes versus placebo, cue induced alcohol seeking” value [1] was “no significant difference” and the “Nose-pokes after a nicotine induced cue, total abstainers” value ([4]; 3 mg/kg intraperitoneally) was 4.58 ± 1.17. For the same molecule, the “Nose-pokes after a nicotine induced cue, former nicotine addicts” value ([4]; 3 mg/kg intraperitoneally) was 24.83 ± 3.20, the “Nose-pokes after a nicotine induced cue, total abstainers” value ([4]; 10 mg/kg intraperitoneally) was 3.00 ± 1.04 and the “Nose-pokes after a nicotine induced cue, former nicotine addicts” value ([4]; 10 mg/kg intraperitoneally) was 28.50 ± 7.40. The “relapse into addiction (nicotine)” value ([4]; 30 mg/kg) was “prevented from relapse into addiction”, the “Nose-pokes after a nicotine induced cue, total abstainers” value ([4]; 30 mg/kg intraperitoneally) was 1.75 ± 0.74 and the “amount of active nose-pokes versus placebo, cue induced nicotine seeking” value ([4]; 30 mg/kg, one-way ANOVA, Fisher's LSD, p<0.05) was “significantly lower”. The “inactive nose-pokes versus placebo, cue induced nicotine seeking” value ([4]; all tested dosages) was “no significant difference”.
